Reference: ChEMBL document CHEMBL5241062, “Recent advances of dual FGFR inhibitors as a novel therapy for cancer” (Eur J Med Chem, 2021)
Blank lines part the entries; values can stand above or below the compound they belong to.

Tests used:
[1] = molecular target: T1, Receptor-type tyrosine-protein kinase FLT3 (Homo sapiens, UniProt P36888); experiment: Inhibition of His tagged recombinant human FLT3 (564 to 958 residues) expressed in baculovirus expression system incubated for […] in the presence of ATP by Z'-LYTE kinase assay
T1 sequence (P36888 whole entry): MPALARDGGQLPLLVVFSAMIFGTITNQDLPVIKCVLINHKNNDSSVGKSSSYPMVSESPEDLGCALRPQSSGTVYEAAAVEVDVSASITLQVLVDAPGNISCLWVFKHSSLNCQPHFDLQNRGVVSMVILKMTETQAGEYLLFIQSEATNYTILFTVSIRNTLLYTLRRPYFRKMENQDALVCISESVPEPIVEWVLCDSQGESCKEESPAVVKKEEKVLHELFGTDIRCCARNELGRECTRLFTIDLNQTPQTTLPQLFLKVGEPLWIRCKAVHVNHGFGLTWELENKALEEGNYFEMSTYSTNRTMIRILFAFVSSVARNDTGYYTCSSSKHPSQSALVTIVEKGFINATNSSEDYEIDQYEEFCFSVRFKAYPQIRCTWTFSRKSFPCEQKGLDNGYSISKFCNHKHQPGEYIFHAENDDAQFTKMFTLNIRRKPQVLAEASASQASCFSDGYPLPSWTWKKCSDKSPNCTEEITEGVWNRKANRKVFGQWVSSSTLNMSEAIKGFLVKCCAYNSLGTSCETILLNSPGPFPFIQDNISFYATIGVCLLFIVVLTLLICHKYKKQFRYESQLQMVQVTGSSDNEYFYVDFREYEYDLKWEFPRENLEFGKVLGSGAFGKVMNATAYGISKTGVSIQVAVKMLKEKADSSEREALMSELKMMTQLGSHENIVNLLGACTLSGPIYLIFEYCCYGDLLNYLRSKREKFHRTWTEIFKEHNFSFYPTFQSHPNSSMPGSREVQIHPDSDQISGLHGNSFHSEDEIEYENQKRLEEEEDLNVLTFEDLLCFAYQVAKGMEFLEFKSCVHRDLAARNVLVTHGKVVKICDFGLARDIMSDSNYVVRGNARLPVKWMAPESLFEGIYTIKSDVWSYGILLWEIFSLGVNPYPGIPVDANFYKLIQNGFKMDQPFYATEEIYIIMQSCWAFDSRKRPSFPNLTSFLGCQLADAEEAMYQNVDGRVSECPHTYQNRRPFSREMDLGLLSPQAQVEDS

[2] = molecular target: Platelet-derived growth factor receptor alpha (Homo sapiens, UniProt P16234); experiment: Inhibition of PDGFRalpha (unknown origin) incubated for […] in the presence of ATP by Z'-LYTE kinase assay
[3] = molecular target: T2, Epidermal growth factor receptor (Homo sapiens, UniProt P00533); experiment: Inhibition of EGFR (unknown origin) using biotin as substrate incubated for 1 hrs in the presence of ATP by HTRF assay
[4] = molecular target: T3, Fibroblast growth factor receptor 4 (Homo sapiens, UniProt P22455); experiment: Inhibition of FGFR4 (unknown origin) using biotin as substrate incubated for 1 hrs in the presence of ATP by HTRF assay
T3 sequence (P22455 whole entry): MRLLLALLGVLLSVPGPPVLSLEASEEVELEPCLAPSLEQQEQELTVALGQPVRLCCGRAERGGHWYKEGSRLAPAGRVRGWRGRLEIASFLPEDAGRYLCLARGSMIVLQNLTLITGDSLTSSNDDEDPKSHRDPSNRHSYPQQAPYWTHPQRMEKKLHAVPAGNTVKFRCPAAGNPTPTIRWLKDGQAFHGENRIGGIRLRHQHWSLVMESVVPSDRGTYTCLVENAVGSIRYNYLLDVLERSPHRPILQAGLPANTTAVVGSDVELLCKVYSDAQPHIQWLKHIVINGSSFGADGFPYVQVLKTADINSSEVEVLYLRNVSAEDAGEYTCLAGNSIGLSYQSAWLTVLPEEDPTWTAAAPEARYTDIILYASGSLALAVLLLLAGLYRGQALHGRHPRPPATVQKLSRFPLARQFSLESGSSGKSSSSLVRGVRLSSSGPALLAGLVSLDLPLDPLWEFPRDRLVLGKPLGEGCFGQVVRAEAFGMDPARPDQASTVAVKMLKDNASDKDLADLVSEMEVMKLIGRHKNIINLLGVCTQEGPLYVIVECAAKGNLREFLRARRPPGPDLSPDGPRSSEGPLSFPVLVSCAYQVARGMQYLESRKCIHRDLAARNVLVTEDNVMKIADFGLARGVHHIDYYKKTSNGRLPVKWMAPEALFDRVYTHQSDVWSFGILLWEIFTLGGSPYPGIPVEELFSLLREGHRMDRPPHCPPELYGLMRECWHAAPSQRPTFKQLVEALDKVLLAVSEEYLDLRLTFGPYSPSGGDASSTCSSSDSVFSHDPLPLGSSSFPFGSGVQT

[5] = molecular target: T2, Epidermal growth factor receptor; experiment: Inhibition of EGFR (unknown origin) by Z'-LYTE Kinase assay
[6] = molecular target: T3, Fibroblast growth factor receptor 4; experiment: Inhibition of FGFR4 (unknown origin) by Z'-LYTE Kinase assay
[7] = molecular target: T4, Fibroblast growth factor receptor 3 (Homo sapiens, UniProt P22607); experiment: Inhibition of FGFR3 (unknown origin) by Z'-LYTE Kinase assay
T4 sequence (P22607 whole entry): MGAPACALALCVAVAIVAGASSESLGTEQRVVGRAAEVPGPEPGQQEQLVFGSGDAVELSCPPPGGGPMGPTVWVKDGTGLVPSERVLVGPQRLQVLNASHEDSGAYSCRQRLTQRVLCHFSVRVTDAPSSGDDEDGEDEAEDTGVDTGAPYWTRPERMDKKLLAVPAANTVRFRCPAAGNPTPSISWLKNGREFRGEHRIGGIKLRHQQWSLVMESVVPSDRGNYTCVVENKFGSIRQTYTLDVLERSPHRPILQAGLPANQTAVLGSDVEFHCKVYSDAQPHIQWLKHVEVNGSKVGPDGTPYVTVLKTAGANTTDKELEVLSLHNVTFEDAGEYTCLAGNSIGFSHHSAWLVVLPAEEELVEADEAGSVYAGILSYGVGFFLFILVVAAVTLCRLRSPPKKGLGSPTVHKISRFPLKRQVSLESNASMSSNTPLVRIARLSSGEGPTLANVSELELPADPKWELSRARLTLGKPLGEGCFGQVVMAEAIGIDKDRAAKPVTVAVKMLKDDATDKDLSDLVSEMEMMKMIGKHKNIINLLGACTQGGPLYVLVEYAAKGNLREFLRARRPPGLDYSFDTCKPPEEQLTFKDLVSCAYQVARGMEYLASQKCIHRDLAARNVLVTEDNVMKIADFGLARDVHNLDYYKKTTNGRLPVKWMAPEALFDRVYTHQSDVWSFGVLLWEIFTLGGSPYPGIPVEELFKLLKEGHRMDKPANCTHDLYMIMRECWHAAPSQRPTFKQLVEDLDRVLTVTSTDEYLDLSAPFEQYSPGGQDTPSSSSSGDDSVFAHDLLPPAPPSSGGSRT

[8] = molecular target: T5, Fibroblast growth factor receptor 2 (Homo sapiens, UniProt P21802); experiment: Inhibition of FGFR2 (unknown origin) by Z'-LYTE Kinase assay
T5 sequence (P21802 whole entry): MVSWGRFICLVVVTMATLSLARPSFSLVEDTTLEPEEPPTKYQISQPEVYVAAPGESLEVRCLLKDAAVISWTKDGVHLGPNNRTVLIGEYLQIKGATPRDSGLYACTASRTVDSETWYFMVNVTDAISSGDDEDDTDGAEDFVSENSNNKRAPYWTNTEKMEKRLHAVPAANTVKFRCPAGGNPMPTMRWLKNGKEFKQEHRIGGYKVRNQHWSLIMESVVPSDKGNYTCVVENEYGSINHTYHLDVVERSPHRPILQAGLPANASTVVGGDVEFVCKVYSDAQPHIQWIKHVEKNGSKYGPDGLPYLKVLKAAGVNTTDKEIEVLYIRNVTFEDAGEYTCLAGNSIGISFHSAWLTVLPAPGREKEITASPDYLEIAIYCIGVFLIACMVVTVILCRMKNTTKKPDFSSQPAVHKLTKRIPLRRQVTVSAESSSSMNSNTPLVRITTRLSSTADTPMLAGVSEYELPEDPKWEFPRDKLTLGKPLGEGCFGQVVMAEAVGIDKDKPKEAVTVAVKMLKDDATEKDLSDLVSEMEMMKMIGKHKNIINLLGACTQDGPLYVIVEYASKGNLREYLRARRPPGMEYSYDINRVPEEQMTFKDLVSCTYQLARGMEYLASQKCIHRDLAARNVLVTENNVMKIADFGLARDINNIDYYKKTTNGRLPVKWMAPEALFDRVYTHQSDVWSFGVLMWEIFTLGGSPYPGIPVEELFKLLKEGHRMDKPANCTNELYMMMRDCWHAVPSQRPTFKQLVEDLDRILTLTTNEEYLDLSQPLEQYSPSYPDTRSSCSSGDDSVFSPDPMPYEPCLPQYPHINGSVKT

[9] = molecular target: T6, Fibroblast growth factor receptor 1 (Homo sapiens, UniProt P11362); experiment: Inhibition of FGFR1 (unknown origin) by Z'-LYTE Kinase assay
T6 sequence (P11362 whole entry, the tested form may be a part): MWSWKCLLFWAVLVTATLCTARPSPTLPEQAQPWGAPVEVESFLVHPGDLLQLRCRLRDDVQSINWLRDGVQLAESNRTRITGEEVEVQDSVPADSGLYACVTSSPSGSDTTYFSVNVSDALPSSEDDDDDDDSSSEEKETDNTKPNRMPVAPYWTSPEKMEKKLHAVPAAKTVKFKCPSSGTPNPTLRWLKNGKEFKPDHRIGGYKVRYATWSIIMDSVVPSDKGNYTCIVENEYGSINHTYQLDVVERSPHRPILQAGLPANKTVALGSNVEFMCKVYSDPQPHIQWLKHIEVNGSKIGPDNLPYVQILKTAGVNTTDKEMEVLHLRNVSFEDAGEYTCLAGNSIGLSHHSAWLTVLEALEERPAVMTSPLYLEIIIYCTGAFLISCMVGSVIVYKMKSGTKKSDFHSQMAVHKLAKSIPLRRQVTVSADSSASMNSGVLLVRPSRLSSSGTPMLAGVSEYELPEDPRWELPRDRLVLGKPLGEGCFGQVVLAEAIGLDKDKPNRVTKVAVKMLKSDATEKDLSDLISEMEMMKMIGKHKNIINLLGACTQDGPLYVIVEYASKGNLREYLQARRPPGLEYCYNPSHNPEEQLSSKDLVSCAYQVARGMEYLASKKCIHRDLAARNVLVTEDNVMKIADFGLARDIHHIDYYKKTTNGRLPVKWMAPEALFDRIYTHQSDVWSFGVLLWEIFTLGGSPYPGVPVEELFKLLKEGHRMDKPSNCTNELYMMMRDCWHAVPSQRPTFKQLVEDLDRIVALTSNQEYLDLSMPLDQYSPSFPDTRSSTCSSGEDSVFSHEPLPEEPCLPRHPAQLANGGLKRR

[10] = molecular target: T7, Platelet-derived growth factor receptor beta (Homo sapiens, UniProt P09619); experiment: Inhibition of N-terminal 6-His tagged recombinant PDGFRbeta Kinase domain (unknown origin) expressed in baculovirus expression system incubated for 30 mins in the presence of [33p]-ATP by scintillation counting analysis
[11] = molecular target: T8, Vascular endothelial growth factor receptor 2 (Homo sapiens, UniProt P35968); experiment: Inhibition of N-terminal 6-His tagged recombinant VEGFR2 Kinase domain (unknown origin) expressed in baculovirus expression system incubated for 30 mins in the presence of [33p]-ATP by scintillation counting analysis
T8 sequence (P35968 whole entry, the tested form may be a part): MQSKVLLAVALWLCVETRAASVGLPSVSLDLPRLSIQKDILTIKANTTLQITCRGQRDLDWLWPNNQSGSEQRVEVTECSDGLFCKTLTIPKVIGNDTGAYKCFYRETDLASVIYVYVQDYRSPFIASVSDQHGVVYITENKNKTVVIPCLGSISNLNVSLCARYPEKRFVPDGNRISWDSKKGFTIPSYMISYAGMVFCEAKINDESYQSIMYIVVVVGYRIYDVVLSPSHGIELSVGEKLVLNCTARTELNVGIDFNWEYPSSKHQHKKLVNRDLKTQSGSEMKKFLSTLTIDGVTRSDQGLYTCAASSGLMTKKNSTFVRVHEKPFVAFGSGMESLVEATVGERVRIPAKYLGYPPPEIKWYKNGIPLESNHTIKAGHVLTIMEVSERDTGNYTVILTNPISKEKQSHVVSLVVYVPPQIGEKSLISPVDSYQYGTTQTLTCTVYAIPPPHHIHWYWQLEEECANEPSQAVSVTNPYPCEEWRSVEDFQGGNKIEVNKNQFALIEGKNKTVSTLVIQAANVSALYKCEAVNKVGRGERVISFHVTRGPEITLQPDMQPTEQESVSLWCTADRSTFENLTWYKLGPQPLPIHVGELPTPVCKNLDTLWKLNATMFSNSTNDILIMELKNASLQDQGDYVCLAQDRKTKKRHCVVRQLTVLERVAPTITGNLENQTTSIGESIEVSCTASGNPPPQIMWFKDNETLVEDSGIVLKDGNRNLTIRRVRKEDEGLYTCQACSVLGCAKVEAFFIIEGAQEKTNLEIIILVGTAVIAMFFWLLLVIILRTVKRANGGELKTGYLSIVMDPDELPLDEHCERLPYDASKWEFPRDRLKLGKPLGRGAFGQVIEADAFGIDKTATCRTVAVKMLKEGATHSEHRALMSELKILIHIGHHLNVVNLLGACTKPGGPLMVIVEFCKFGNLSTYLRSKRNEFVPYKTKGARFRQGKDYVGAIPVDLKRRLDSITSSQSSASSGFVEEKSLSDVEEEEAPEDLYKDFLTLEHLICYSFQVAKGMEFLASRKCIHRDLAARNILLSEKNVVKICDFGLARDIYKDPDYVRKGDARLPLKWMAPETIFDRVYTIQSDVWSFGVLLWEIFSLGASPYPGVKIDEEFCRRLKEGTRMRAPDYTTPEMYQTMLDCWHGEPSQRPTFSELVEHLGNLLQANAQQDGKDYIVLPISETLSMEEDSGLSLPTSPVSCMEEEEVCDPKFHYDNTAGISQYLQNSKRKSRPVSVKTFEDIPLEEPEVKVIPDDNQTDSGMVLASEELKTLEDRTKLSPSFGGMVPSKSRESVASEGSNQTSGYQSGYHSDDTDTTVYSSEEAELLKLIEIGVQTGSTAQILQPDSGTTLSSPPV

[12] = molecular target: T6, Fibroblast growth factor receptor 1; experiment: Inhibition of N-terminal 6-His tagged recombinant FGFR1 Kinase domain (unknown origin) expressed in baculovirus expression system incubated for 30 mins in the presence of [33p]-ATP by scintillation counting analysis
[13] = molecular target: T6, Fibroblast growth factor receptor 1; experiment: Inhibition of recombinant FGFR1 (unknown origin) incubated for 60 mins by ELISA analysis
[14] = molecular target: T9, Vascular endothelial growth factor receptor 1 (Homo sapiens, UniProt P17948); experiment: Inhibition of recombinant VEGFR1 (unknown origin) incubated for 60 mins by ELISA analysis
[15] = molecular target: T5, Fibroblast growth factor receptor 2; experiment: Inhibition of recombinant FGFR2 (unknown origin) incubated for 60 mins by ELISA analysis
[16] = molecular target: T7, Platelet-derived growth factor receptor beta; experiment: Inhibition of recombinant PDGFRbeta (unknown origin) incubated for 60 mins by ELISA analysis
[17] = molecular target: T4, Fibroblast growth factor receptor 3; experiment: Inhibition of recombinant FGFR3 (unknown origin) incubated for 60 mins by ELISA analysis
[18] = molecular target: T8, Vascular endothelial growth factor receptor 2; experiment: Inhibition of recombinant VEGFR2 (unknown origin) incubated for 60 mins by ELISA analysis
[19] = molecular target: T5, Fibroblast growth factor receptor 2; experiment: Inhibition of recombinant FGFR2 (unknown origin) in the presence of [p33]-ATP
[20] = molecular target: T10, Fibroblast growth factor receptor substrate 2 (Homo sapiens, UniProt Q8WU20); experiment: Inhibition of FRS2 phosphorylation at Tyr196 residue in human SNU-16 cells incubated for 20 mins by electrochemiluminescence method; assay type: cell-based
T10 sequence (Q8WU20 whole entry): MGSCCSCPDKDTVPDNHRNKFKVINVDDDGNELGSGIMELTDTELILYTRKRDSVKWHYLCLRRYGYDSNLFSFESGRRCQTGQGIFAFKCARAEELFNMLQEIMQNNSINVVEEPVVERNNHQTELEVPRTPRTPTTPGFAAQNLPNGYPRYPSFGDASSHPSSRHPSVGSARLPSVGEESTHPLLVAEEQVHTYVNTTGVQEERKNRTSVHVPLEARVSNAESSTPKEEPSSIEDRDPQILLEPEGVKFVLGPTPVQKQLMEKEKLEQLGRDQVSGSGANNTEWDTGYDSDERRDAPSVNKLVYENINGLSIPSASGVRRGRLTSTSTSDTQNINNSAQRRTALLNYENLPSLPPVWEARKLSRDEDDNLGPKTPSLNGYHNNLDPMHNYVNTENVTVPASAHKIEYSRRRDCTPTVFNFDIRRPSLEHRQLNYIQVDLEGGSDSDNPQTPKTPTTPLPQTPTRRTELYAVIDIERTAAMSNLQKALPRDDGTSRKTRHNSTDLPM

[21] = molecular target: T4, Fibroblast growth factor receptor 3; experiment: Inhibition of recombinant FGFR3 (unknown origin) in the presence of [p33]-ATP
RT-4 [22] = experiment: Antitumor activity against human RT-4 cells xenografted in mouse assessed as tumor growth inhibition at 40 mg/kg/day, po administered for 21 days relative to control; assay type: functional; settings: RT-4, 504 h, time 21 day, read-out: TGI
[23] = molecular target: T10, Fibroblast growth factor receptor substrate 2; experiment: Inhibition of FRS2 phosphorylation at Tyr196 residue in human NCI-H1581 cells incubated for 20 mins by electrochemiluminescence method; assay type: cell-based
[24] = molecular target: T8, Vascular endothelial growth factor receptor 2; experiment: Inhibition of recombinant VEGFR2 (unknown origin) in the presence of [p33]-ATP
[25] = molecular target: Vascular endothelial growth factor receptor 3 (Homo sapiens, UniProt P35916); experiment: Inhibition of recombinant VEGFR3 (unknown origin) in the presence of [p33]-ATP
[26] = molecular target: T6, Fibroblast growth factor receptor 1; experiment: Inhibition of recombinant FGFR1 (unknown origin) in the presence of [p33]-ATP
[27] = molecular target: T3, Fibroblast growth factor receptor 4; experiment: Inhibition of recombinant FGFR4 (unknown origin) in the presence of [p33]-ATP
RT-4 [28] = experiment: Antitumor activity against human RT-4 cells xenografted in mouse assessed as tumor growth inhibition at 20 mg/kg/day, po administered for 21 days relative to control; assay type: functional; settings: RT-4, 504 h, time 21 day, read-out: TGI
[29] = molecular target: T10, Fibroblast growth factor receptor substrate 2; experiment: Inhibition of FRS2 phosphorylation at Tyr196 residue in human RT-4 cells incubated for 20 mins by electrochemiluminescence method; assay type: cell-based
[30] = molecular target: T9, Vascular endothelial growth factor receptor 1; experiment: Inhibition of recombinant VEGFR1 (unknown origin) in the presence of [p33]-ATP
NCI-H1581 = experiment: Antitumor activity against human NCI-H1581 cells assessed as tumor growth inhibition at 50 mg/kg, po administered for 14 days relative to control; assay type: functional; settings: NCI-H1581, 336 h, time 14 day, read-out: TGI

Structure (SMILES): Cc1ccc(C(=O)Nc2ccc(CN3CCN(C)CC3)c(C(F)(F)F)c2)cc1C#Cc1cnc2[nH]ncc2c1 [OLVEREMBATINIB]
IC50 [1]: 1.33 nM
IC50 [2]: 2.08 nM

Structure (SMILES): COc1cc2ncnc(Oc3ccc(NC(=O)Nc4cccc(C(F)(F)F)c4)c4ccccc34)c2cc1OC
IC50 [3]: 86.2 nM
IC50 [4]: 83.9 nM

Structure (SMILES): O=C(O)CCc1c(/C=C2\C(=O)Nc3ccc(F)cc32)[nH]c2c1C(=O)CCC2
IC50 [10]: 42 nM
IC50 [11]: 25 nM
IC50 [12]: 260 nM

Structure (SMILES): Cn1cc(-c2ccc3c(c2)ncn3-c2cc(NS(=O)(=O)C3CC3)cc(-c3ccc(F)cc3F)c2)cn1
IC50 [19]: 16 nM
IC50 [20]: 59 nM
IC50 [21]: 6 nM
inhibition in vivo at 40 mg/kg/day (RT-4 [22]): 92%
IC50 [23]: 93 nM
IC50 [24]: 9 nM
IC50 [25]: 5 nM
IC50 [26]: 11 nM
IC50 [27]: 35 nM
inhibition in vivo at 20 mg/kg/day (RT-4 [28]): 37%
IC50 [29]: 89 nM
IC50 [30]: 26 nM

Structure (SMILES): COc1cc(OC)c(Cl)c(-c2ccc3c(NC(=O)c4ccc(N5CCNC(C)(C)C5)cc4)n[nH]c3n2)c1Cl [SEGIGRATINIB]
inhibition in vivo at 50 mg/kg (NCI-H1581): 96.4%

The next lines start with the values.

IC50 [5]: 43 nM
IC50 [6]: 35 nM
IC50 [7]: 31 nM
IC50 [8]: 21 nM
IC50 [9]: 3 nM
Structure (SMILES): C=CC(=O)Nc1ccc(CN(C(=O)Nc2c(Cl)c(OC)cc(OC)c2Cl)c2cc(Nc3ccc(N4CCN(C)CC4)cc3)ncn2)cc1

IC50 [13]: 1.8 nM
IC50 [14]: 5.6 nM
IC50 [15]: 1.9 nM
IC50 [16]: 7.8 nM
IC50 [17]: 6.9 nM
IC50 [18]: 1.2 nM
Structure (SMILES): CNC(=O)c1cccc2cc(Oc3ccnc(NC(=O)c4ccc(N5CCN(CCO)CC5)cc4)c3)ccc12
